Source: ChEMBL document CHEMBL3046389, “Synthesis and biological evaluation of novel hydroquinone dimethyl ethers as potential anticancer and antimicrobial agents” (2013)

Legend:
Type in all cases: functional
NCI-H522 = test: Growth inhibition of Homo sapiens (human) NCI-H522 cells at 10 uM after 48 hr by SRB assay; details: NCI-H522, 48 h, read-out: GI
UACC-257 = test: Growth inhibition of Homo sapiens (human) UACC257 cells at 10 uM after 48 hr by SRB assay; details: UACC-257, 48 h, read-out: GI
SK-MEL-28 = test: Growth inhibition of Homo sapiens (human) SK-MEL-28 cells at 10 uM after 48 hr by SRB assay; details: SK-MEL-28, 48 h, read-out: GI
HOP-92 = test: Anticancer activity against Homo sapiens (human) HOP92 cells after 48 hr by SRB assay; details: HOP-92, 48 h; for CC50: read-out: LC50 (the source's name)
OVCAR-5 = test: Growth inhibition of Homo sapiens (human) OVCAR5 cells at 10 uM after 48 hr by SRB assay; details: OVCAR-5, 48 h, read-out: GI
BT-549 = test: Anticancer activity against Homo sapiens (human) BT549 cells after 48 hr by SRB assay; details: BT-549, 48 h; for CC50: read-out: LC50 (the source's name)
SK-MEL-5 = test: Growth inhibition of Homo sapiens (human) SK-MEL-5 cells at 10 uM after 48 hr by SRB assay; details: SK-MEL-5, 48 h, read-out: GI
COLO 205 = test: Growth inhibition of Homo sapiens (human) COLO205 cells at 10 uM after 48 hr by SRB assay; details: COLO 205, 48 h, read-out: GI
OVCAR-4 = test: Growth inhibition of Homo sapiens (human) OVCAR4 cells at 10 uM after 48 hr by SRB assay; details: OVCAR-4, 48 h, read-out: GI
EKVX = test: Growth inhibition of Homo sapiens (human) EKVX cells at 10 uM after 48 hr by SRB assay; details: read-out: GI
CAKI-1 = test: Growth inhibition of Homo sapiens (human) CAKI-1 cells at 10 uM after 48 hr by SRB assay; details: CAKI-1, 48 h, read-out: GI
DU-145 = test: Growth inhibition of Homo sapiens (human) DU145 cells at 10 uM after 48 hr by SRB assay; details: DU-145, 48 h, read-out: GI
SF-268 = test: Growth inhibition of Homo sapiens (human) SF268 cells at 10 uM after 48 hr by SRB assay; details: SF-268, 48 h, read-out: GI
K562 = test: Growth inhibition of Homo sapiens (human) K562 cells at 10 uM after 48 hr by SRB assay; details: K562, 48 h, read-out: GI
RPMI-8226 = test: Growth inhibition of Homo sapiens (human) RPMI8226 cells at 10 uM after 48 hr by SRB assay; details: RPMI-8226, 48 h, read-out: GI
A498 = test: Growth inhibition of Homo sapiens (human) A498 cells at 10 uM after 48 hr by SRB assay; details: A498, 48 h, read-out: GI
SK-MEL-2 = test: Growth inhibition of Homo sapiens (human) SK-MEL-2 cells at 10 uM after 48 hr by SRB assay; details: SK-MEL-2, 48 h, read-out: GI
SF-295 = test: Anticancer activity against Homo sapiens (human) SF295 cells after 48 hr by SRB assay; details: SF-295, 48 h; for CC50: read-out: LC50 (the source's name)
NCI-H322M = test: Growth inhibition of Homo sapiens (human) NCI-H322M cells at 10 uM after 48 hr by SRB assay; details: read-out: GI
NCI-H226 [1] = test: Anticancer activity against Homo sapiens (human) NCI-H226 cells after 48 hr by SRB assay; details: NCI-H226, 48 h; for CC50: read-out: LC50 (the source's name)
NCI/ADR-RES = test: Growth inhibition of Homo sapiens (human) NCI/ADR-RES cells at 10 uM after 48 hr by SRB assay; details: read-out: GI
MDA-MB-435 = test: Anticancer activity against Homo sapiens (human) MDA-MB-435 cells after 48 hr by SRB assay; details: MDA-MB-435, 48 h; for CC50: read-out: LC50 (the source's name)
MDA-MB-231 = test: Growth inhibition of Homo sapiens (human) MDA-MB-231/ATCC cells at 10 uM after 48 hr by SRB assay; details: MDA-MB-231, 48 h, read-out: GI
SR = test: Growth inhibition of Homo sapiens (human) SR cells at 10 uM after 48 hr by SRB assay; details: read-out: GI
NCI-H226 [2] = test: Growth inhibition of Homo sapiens (human) NCI-H226 cells at 10 uM after 48 hr by SRB assay; details: NCI-H226, 48 h, read-out: GI

Row | Compound | inhibition of growth at 10 µM (NCI-H522) | inhibition of growth at 10 µM (UACC-257) | inhibition of growth at 10 µM (SK-MEL-28) | GI50 (HOP-92) | TGI (HOP-92) | CC50 (HOP-92) | GI50 (BT-549) | TGI (BT-549) | CC50 (BT-549) | inhibition of growth at 10 µM (SK-MEL-5) | inhibition of growth at 10 µM (COLO 205) | inhibition of growth at 10 µM (OVCAR-4) | inhibition of growth at 10 µM (EKVX) | inhibition of growth at 10 µM (K562) | GI50 (SF-295) | TGI (SF-295) | CC50 (SF-295) | GI50 (MDA-MB-435) | TGI (MDA-MB-435) | CC50 (MDA-MB-435) | other results
1 | COc1ccc(OC)c(/C=C/C(=O)N/N=C/c2ccc(Cl)cc2)c1 | 136% | 47% | 61.2% | 4.43 µM | 58.9 µM | > 100 µM | 1.17 µM | > 100 µM | > 100 µM | 69.4% | 149% | 59.8% | 56.9% | 86% | 0.129 µM | 6.44 µM | > 100 µM | 0.0311 µM | 0.0988 µM | > 100 µM | inhibition of growth at 10 µM (OVCAR-5): 71.6%; inhibition of growth at 10 µM (CAKI-1): 58.2%; inhibition of growth at 10 µM (DU-145): 85.2%; inhibition of growth at 10 µM (SF-268): 66.8%; inhibition of growth at 10 µM (RPMI-8226): 78.7%; inhibition of growth at 10 µM (A498): 87.5%; inhibition of growth at 10 µM (SK-MEL-2): 77.7%; inhibition of growth at 10 µM (NCI-H322M): 58.7%; GI50 (NCI-H226 [1]): 0.979 µM; TGI (NCI-H226 [1]): > 100 µM; CC50 (NCI-H226 [1]): > 100 µM; inhibition of growth at 10 µM (NCI/ADR-RES): 96.2%; inhibition of growth at 10 µM (MDA-MB-231): 71.9%
2 | COc1ccc(OC)c(/C=C/c2nnc(S)n2-c2ccc(Cl)cc2)c1 | – | – | – | 3.56 µM | > 100 µM | > 100 µM | 9.38 µM | > 100 µM | > 100 µM | – | – | – | – | 77.6% | 4.16 µM | > 100 µM | > 100 µM | 2.83 µM | > 100 µM | > 100 µM | inhibition of growth at 10 µM (SR): 61.7%
3 | COc1ccc(OC)c(/C=C/c2nnc(Nc3ccc(Cl)cc3)o2)c1 | – | – | – | – | – | – | – | > 100 µM | > 100 µM | – | – | 116% | – | – | 6.15 µM | 64.5 µM | > 100 µM | 37 µM | > 100 µM | > 100 µM | inhibition of growth at 10 µM (NCI-H226 [2]): 43.9%; inhibition of growth at 10 µM (NCI-H322M): 41.4%
4 | COc1ccc(OC)c(/C=C/C(=O)N/N=C/c2ccccc2)c1 | 115% | 48.7% | 34.5% | 1.56 µM | 13.3 µM | > 100 µM | 4.05 µM | 90.4 µM | > 100 µM | 69.2% | 57.2% | – | 36% | 78.8% | 1 µM | 11.1 µM | > 100 µM | 0.283 µM | 1.98 µM | > 100 µM | inhibition of growth at 10 µM (CAKI-1): 52.2%; inhibition of growth at 10 µM (SF-268): 39.3%; inhibition of growth at 10 µM (RPMI-8226): 45.6%; inhibition of growth at 10 µM (A498): 61.3%; inhibition of growth at 10 µM (SK-MEL-2): 101%; GI50 (NCI-H226 [1]): 30.8 µM; TGI (NCI-H226 [1]): > 100 µM; CC50 (NCI-H226 [1]): > 100 µM; inhibition of growth at 10 µM (NCI/ADR-RES): 91.5%
